The target in assay [1] is DNA topoisomerase 2-alpha (Homo sapiens, UniProt P11388). Description: Inhibition of topoisomerase 2.
The test system of another assay is HT-29. Description: Cytotoxicity against human HT-29 cells. In kind it is functional, cell-based.
A further assay concerns P388. As to the kind of experiment: Cytotoxicity against mouse P388 cells. In kind it is functional, cell-based.
Another assay has as its target T1, Dihydrofolate reductase (Homo sapiens, UniProt P00374).
T1 sequence (P00374 whole entry): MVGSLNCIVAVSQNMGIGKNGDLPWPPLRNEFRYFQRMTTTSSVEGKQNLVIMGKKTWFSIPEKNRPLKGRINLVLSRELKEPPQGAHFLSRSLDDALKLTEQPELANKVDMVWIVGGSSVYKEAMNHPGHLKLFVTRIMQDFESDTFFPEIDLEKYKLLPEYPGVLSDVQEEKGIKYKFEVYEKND
Description: Inhibition of DHFR.

A further assay has as its system A549. Description: Cytotoxicity against human A549 cells. In kind it is functional, cell-based.
A short description of assay [2]: Cytotoxicity against african green monkey CV1 cells. In kind it is cell-based. The settings on record: Chlorocebus aethiops, CV-1.

These results are taken from ChEMBL document CHEMBL1147337, “A new bastadin from the sponge Psammaplysilla purpurea” (J Nat Prod, 1993).

Converted amounts (≈) assume the structure as drawn.

DNA topoisomerase 2-alpha, sequence (P11388 whole entry): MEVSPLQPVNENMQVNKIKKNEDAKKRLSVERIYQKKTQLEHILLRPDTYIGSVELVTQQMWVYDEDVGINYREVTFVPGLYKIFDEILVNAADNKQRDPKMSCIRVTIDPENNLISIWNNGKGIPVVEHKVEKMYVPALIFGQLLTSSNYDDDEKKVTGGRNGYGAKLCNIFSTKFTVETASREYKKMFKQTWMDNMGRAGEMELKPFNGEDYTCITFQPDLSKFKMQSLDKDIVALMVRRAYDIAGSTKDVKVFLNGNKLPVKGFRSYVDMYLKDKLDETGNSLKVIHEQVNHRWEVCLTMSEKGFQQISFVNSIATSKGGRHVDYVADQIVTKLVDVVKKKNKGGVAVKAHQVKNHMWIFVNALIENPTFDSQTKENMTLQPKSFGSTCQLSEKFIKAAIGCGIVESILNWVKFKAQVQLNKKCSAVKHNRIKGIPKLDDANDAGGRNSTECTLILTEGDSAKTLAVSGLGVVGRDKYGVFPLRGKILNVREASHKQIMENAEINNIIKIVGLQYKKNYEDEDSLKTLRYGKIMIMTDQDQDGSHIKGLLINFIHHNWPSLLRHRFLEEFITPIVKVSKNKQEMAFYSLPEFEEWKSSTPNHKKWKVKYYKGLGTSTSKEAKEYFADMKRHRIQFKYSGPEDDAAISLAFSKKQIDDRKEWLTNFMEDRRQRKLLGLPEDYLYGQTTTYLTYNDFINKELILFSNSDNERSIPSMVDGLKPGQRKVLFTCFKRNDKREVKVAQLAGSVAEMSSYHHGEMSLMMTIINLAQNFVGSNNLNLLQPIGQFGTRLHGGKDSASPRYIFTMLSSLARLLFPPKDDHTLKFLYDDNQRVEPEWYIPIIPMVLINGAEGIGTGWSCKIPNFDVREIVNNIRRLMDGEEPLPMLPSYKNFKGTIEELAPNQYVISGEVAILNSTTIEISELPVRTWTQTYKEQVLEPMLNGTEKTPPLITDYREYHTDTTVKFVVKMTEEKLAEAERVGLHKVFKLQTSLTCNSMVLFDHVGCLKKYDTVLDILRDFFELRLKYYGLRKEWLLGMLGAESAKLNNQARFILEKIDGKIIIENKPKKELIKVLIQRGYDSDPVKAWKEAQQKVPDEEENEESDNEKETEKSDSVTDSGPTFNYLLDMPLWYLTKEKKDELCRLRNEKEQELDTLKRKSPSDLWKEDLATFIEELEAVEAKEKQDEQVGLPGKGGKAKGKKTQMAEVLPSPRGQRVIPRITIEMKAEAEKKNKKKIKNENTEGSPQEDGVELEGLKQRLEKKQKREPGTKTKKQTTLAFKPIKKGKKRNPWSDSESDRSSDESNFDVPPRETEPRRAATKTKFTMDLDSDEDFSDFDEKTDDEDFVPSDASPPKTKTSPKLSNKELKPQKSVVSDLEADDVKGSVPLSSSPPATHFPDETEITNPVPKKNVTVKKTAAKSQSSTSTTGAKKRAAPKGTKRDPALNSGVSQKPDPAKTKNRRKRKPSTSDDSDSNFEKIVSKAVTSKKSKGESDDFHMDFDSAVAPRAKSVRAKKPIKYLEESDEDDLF

Usually IC50 stands for the concentration needed to halve the response being measured. Turning to `O=C1N/C=C/c2cc(Br)c(c(Br)c2)Oc2cc(cc(Br)c2O)CCNC(=O)/C(=N/O)Cc2ccc(c(Br)c2)Oc2cc(cc(Br)c2O)C/C1=N\O` [BASTADIN 14], the IC50 in assay [1] was 1970 nM; in the assay with HT-29, 2 µg/mL (≈ 1.97 µM); with P388 it was 2 µg/mL (≈ 1.97 µM); on Dihydrofolate reductase, 2460 nM; in the assay with A549, 2 µg/mL (≈ 1.97 µM); in assay [2] it was 2.5 µg/mL (≈ 2.46 µM).
